Measured values taken from PubChem BioAssay AID1845207 (Molecular Pharmacology Branch, DTP, NCI, 2023).

System: NCI-H1876 tumor spheroid viability
Test: Anticancer human tumor NCI-H1876 cell line growth inhibition;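 also: spheroids exposed to compounds for seven days before the viability read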;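 as to viability, T/C: percent of DMSO vehicle control viability so 100% = vehicle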
Details: spheroids with HUVEC and MSC; for IC50: curve of first compound; for viability, T/C: stronger effect = lower value
Description: Multicellular complex tumor spheroid response to DNA repair inhibitors in combination with DNA-damaging drugs
This study explores the anticancer activities of DNA-damaging drugs and inhibitors of DNA damage repair, both as single agents and in combinations. Complex tumor spheroids comprised of malignant cells, endothelial cells and mesenchymal stem cells served as an in vitro model for human solid tumors. This model system incorporates physiologically relevant features and patient-derived or established malignant cell lines with clinically relevant genetic alterations from many tumor types. Twenty-six patient-derived or established malignant cell lines were evaluated representing sarcoma, melanoma, small cell lung cancer (SCLC), non-small cell lung cancer (NSCLC), as well as bladder, ovarian and pancreatic cancers. The concentration ranges selected for each drug and investigational agent were based upon clinically achievable concentrations if the clinical Cmax of the agent was known.
Compounds. The drugs and compounds olaparib (NSC753686), talazoparib (NSC767125), berzosertib (NSC777718), elimusertib (NSC800525), nedisertib (NSC802822), VX-984 (NSC792969), AZD-1390 (NSC803789), temozolomide (NSC362856), topotecan (NSC609699), trabectedin (NSC813783), staurosporine (NSC755774), and gemcitabine (NSC613327) were obtained from the National Cancer Institute (NCI) Developmental Therapeutics Program Chemical Repository. The FDA-approved anticancer drug set is available from the Developmental Therapeutics Program at https://dtp.cancer.gov/organization/dscb/obtaining/available_plates.htm. […] The stock solutions were prepared in dimethyl sulfoxide (DMSO, Sigma-Aldrich, St. Louis, MO, cat. D2650) at 400-fold the tested concentration and stored at -70 degrees C. Prior to their use, the stock solutions were diluted in fresh medium and the final DMSO concentration in the assay was 0.25% (v/v). All drugs and investigational agents were tested over a range starting from a high concentration at or near the clinical Cmax and decreasing in half-log increments. If the clinical Cmax for an agent had not been determined, the highest concentration tested was 10 microM.
Cell Lines. The patient-derived cancer cell (PDC) lines: 156681-154-R-J1-PDC, 283228-195-R-J1-PDC, 287954-098-R-J1-PDC, 292921-168-R-J2-PDC, 349418-098-R-PDC, 425362-245-T-J1-PDC, 556581-035-R-J1-PDC, and BL0293-F563-PDC were received from the NCI Patient-Derived Models Repository (PDMR, https://pdmr.cancer.gov). The established cell lines HS-SY-2 (RRID:CVCL_8719), MPNST, and SYO-1 (RRID:CVCL_7146) were obtained from the Sloan Kettering Institute. The alveolar soft parts sarcoma cell line ASPS-1 (RRID:CVCL_S738) was established at the NCI and grown from internal seed stocks. The following established cell lines were purchased from the American Type Culture Collection (ATCC, Manassas, VA): G-401 (ATCC, cat. CRL-1441, RRID:CVCL_0270), SW982 (ATCC, cat. HTB-93, RRID:CVCL_1734), VA-ES-BJ (ATCC, cat. CRL-2138, RRID:CVCL_1785), NCI-H719 (ATCC, cat. CRL-5837, RRID:CVCL_1582), NCI-H196 (ATCC, cat. CRL-5823, RRID:CVCL_1509), NCI-H841 (ATCC, cat. CRL-5845, RRID:CVCL_1595), NCI-H1618 (ATCC, cat. CRL-5879, RRID:CVCL_1480), NCI-H1876 (ATCC, cat. CRL-5902, RRID:CVCL_1503), DMS 114 (ATCC, cat. CRL-2066; RRID:CVCL_1174), NCI-H211 (ATCC, cat. CRL-5824; RRID:CVCL_1529), and SW 1271 (ATCC, cat. CRL-2177, RRID:CVCL_1716). The small cell lung cancer cell line COR-L88 was purchased from Sigma-Aldrich (cat. 92031917-1VL, RRID:CVCL_1141). The non-small cell lung cancer cell lines NCI-H226 (RRID:CVCL_1544) and NCI-H322M (RRID:CVCL_1557) were established at the NCI and grown from internal seed stocks. Pooled donor human umbilical vein endothelial cells (HUVEC, Lonza, cat. CC-2519) and human mesenchymal stem cells (hMSC, Lonza, cat. PT-2501) were purchased from Lonza (Walkersville, MD).
Cell Culture. All cells were maintained in an incubator at 37 degrees C and 5% CO2 with 95% humidity. […]

SMILES: CNCc1ccc(-c2cc(-c3nc(-c4ccc(S(=O)(=O)C(C)C)cc4)cnc3N)on2)cc1 + CC[C@@]1(O)C(=O)OCc2c1cc1n(c2=O)Cc2cc3c(CN(C)C)c(O)ccc3nc2-1
- IC50 (second compound 0.003 µM): 56.8 nM
- IC50 (second compound 0.00949 µM): < 9.49 nM
- IC50 (second compound 0.03 µM): < 9.49 nM
- IC50 (second compound 0.0949 µM): < 9.49 nM
- IC50 (second compound 0.3 µM): < 9.49 nM
- viability, T/C (second compound 0.003 µM, first compound 0.00949 µM): 68%
- viability, T/C (second compound 0.003 µM, first compound 0.03 µM): 57.6%
- viability, T/C (second compound 0.003 µM, first compound 0.0949 µM): 34%
- viability, T/C (second compound 0.003 µM, first compound 0.3 µM): 46.9%
- viability, T/C (second compound 0.003 µM, first compound 0.949 µM): 5.62%
- viability, T/C (second compound 0.003 µM, first compound 3 µM): 0.13%
- viability, T/C (second compound 0.00949 µM, first compound 0.00949 µM): 46.3%
- viability, T/C (second compound 0.00949 µM, first compound 0.03 µM): 34.2%
- viability, T/C (second compound 0.00949 µM, first compound 0.0949 µM): 26.3%
- viability, T/C (second compound 0.00949 µM, first compound 0.3 µM): 18%
- viability, T/C (second compound 0.00949 µM, first compound 0.949 µM): 5.92%
- viability, T/C (second compound 0.00949 µM, first compound 3 µM): 0.13%
- viability, T/C (second compound 0.03 µM, first compound 0.00949 µM): 13.6%
- viability, T/C (second compound 0.03 µM, first compound 0.03 µM): 14.5%
- viability, T/C (second compound 0.03 µM, first compound 0.0949 µM): 16.9%
- viability, T/C (second compound 0.03 µM, first compound 0.3 µM): 19%
- viability, T/C (second compound 0.03 µM, first compound 0.949 µM): 5.1%
- viability, T/C (second compound 0.03 µM, first compound 3 µM): 0.13%
- viability, T/C (second compound 0.0949 µM, first compound 0.00949 µM): 8.73%
- viability, T/C (second compound 0.0949 µM, first compound 0.03 µM): 8.03%
- viability, T/C (second compound 0.0949 µM, first compound 0.0949 µM): 10.2%
- viability, T/C (second compound 0.0949 µM, first compound 0.3 µM): 8.96%
- viability, T/C (second compound 0.0949 µM, first compound 0.949 µM): 3.31%
- viability, T/C (second compound 0.0949 µM, first compound 3 µM): 0.13%
- viability, T/C (second compound 0.3 µM, first compound 0.00949 µM): 3.51%
- viability, T/C (second compound 0.3 µM, first compound 0.03 µM): 3.44%
- viability, T/C (second compound 0.3 µM, first compound 0.0949 µM): 3.53%
- viability, T/C (second compound 0.3 µM, first compound 0.3 µM): 3.41%
- viability, T/C (second compound 0.3 µM, first compound 0.949 µM): 1.38%
- viability, T/C (second compound 0.3 µM, first compound 3 µM): 0.19%
